Data published in patent publication EP3046573B1, “AMYLIN ANALOGUES” (Zealand Pharma A/S, priority 2013, dated 2015).
Numbered stars: 1 amine (or outer) side, 2 acyl side, 3 side chain; on linkers, the order of the positions; unused ones are H or OH. Bridge positions count the residues as written; N and C are the ends. Square brackets hold non-standard residues; d marks the D form. Peptide text beside a SMILES is read from it. * marks the point of attachment. C16 diacid = O=C(O)CCCCCCCCCCCCCCC(=O)*; γGlu = O=C(O)[C@H](CCC(=O)[*:2])N[*:1]; Stearoyl = CCCCCCCCCCCCCCCCCC(=O)*; Palmitoyl = CCCCCCCCCCCCCCCC(=O)*; NMeI = CC[C@H](C)[C@H](NC)C(=O)O; Myristoyl = CCCCCCCCCCCCCC(=O)*; Sar = CNCC(=O)O

What was measured:
[1] = Solubility assessment (turbidity absorbance at 325 nm); format: physicochemical; conditions: stock 2 mg/ml diluted 1:1, ambient temperature (typically 25°C), n=1; for Solubility, Acetate buffer pH 4: 100 mM acetate buffer pH 4.0; for Solubility, Acetate buffer pH 5: 100 mM acetate buffer pH 5.0; for Solubility, Histidine buffer pH 6: 100 mM histidine buffer pH 6.0; for Solubility, Histidine buffer pH 7: 100 mM histidine buffer pH 7.0; for Solubility, Phosphate buffer pH 6: 100 mM phosphate buffer pH 6.0; for Solubility, Phosphate buffer pH 7: 100 mM phosphate buffer pH 7.0; for Solubility, Phosphate buffer pH 7.5: 100 mM phosphate buffer pH7.5
Procedure, shortened: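 Peptide stock (2 mg/ml) in water acidified to pH 2.5 with HCl was diluted 1:1 into 100 mM acetate (pH 4.0, 5.0), histidine (pH 6.0, 7.0) or phosphate (pH 6.0, 7.0, 7.5) buffer. A280 and A325 were read at about 25°C, n=1. A325 ≤ 0.02 meant solubility ≥ 1 mg/ml.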

[2] = target: T1, human calcitonin receptor (hCTR2) (Homo sapiens, UniProt P30988); test: hCTR2 assay: induction of cAMP (AlphaScreen cAMP Assay kit) in COS7 cells expressing hCTR2; format: cell-based
T1 construct: expressed in transfected cells
T1 sequence (P30988 25-474): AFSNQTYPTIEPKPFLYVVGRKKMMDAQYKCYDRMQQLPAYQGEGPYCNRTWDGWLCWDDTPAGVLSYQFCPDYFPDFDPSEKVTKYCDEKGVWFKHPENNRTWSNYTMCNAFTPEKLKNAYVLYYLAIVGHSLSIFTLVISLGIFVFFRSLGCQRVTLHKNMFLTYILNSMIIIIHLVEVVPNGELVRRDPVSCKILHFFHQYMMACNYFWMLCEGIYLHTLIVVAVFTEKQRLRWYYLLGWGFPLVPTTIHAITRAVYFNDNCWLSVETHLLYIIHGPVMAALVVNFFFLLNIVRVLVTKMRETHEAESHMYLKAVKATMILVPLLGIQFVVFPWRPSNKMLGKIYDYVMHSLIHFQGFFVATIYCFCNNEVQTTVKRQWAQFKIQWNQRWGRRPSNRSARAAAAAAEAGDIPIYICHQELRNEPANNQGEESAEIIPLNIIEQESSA
Procedure, shortened: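 Stable hCTR2 clone in RAMP-naive COS7 cells; peptides titrated in Tyrode buffer (pH 7.4) with 100 µM IBMX, 0.1% casein, 15 min at 37° C. cAMP read by AlphaScreen after lysis; EC50 and efficacy relative to pramlintide from 4PL fit.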

Row | SMILES | Solubility, Acetate buffer pH 4 [1] | Solubility, Acetate buffer pH 5 [1] | Solubility, Histidine buffer pH 6 [1] | Solubility, Histidine buffer pH 7 [1] | Solubility, Phosphate buffer pH 6 [1] | Solubility, Phosphate buffer pH 7 [1] | Solubility, Phosphate buffer pH 7.5 [1] | EC50 [2] [nM]
1 | CC[C@H](C)[C@@H](C(=O)N[C@@H](CC(C)C)C(=O)N[C@@H](CO)C(=O)N[C@@H](CO)C(=O)N[C@H](C(=O)N[C@@H](CC(N)=O)C(=O)N[C@H](C(=O)NCC(=O)N[C@@H](CO)C(=O)N[C@@H](CC(N)=O)C(=O)N[C@H](C(=O)N1CCC[C@H]1C(N)=O)[C@@H](C)O)C(C)C)[C@@H](C)O)N(C)C(=O)[C@H](C)NC(=O)CN(C)C(=O)[C@H](Cc1ccccc1)NC(=O)[C@H](CC(N)=O)NC(=O)[C@H](CC(N)=O)NC(=O)[C@H](CO)NC(=O)[C@H](CO)NC(=O)[C@H](CCCNC(=N)N)NC(=O)[C@H](Cc1c[nH]cn1)NC(=O)[C@H](CC(C)C)NC(=O)[C@H](Cc1ccccc1)NC(=O)[C@H](CCC(=O)O)NC(=O)[C@H](C)NC(=O)[C@H](CC(C)C)NC(=O)[C@H](CCCNC(=N)N)NC(=O)[C@H](CCC(N)=O)NC(=O)[C@@H](NC(=O)[C@H](C)NC(=O)[C@@H]1CSSC[C@H](NC(=O)[C@H](CCCNC(=N)N)NC(=O)CC[C@H](NC(=O)CCCCCCCCCCCCCCC(=O)O)C(=O)O)C(=O)N[C@@H](CC(N)=O)C(=O)N[C@@H]([C@@H](C)O)C(=O)N[C@@H](C)C(=O)N[C@@H]([C@@H](C)O)C(=O)N1)[C@@H](C)O [Compound 90, [15CD]-isoGlu-RC()NTATC()ATQRLAEFLHRSSNNF-Gly(Me)-A-Ile(Me)-LSSTNVGSNTP-NH2] ({C16 diacid-γGlu}-RCNTATCATQRLAEFLHRSSNNF[Sar]A[NMeI]LSSTNVGSNTP-NH2; disulfide 2-7) | SS (SS indicates solubility ≥ 1mg/ml) | SS (SS indicates solubility ≥ 1mg/ml) | SS (SS indicates solubility ≥ 1mg/ml) | SS (SS indicates solubility ≥ 1mg/ml) | SS (SS indicates solubility ≥ 1mg/ml) | SS (SS indicates solubility ≥ 1mg/ml) | SS (SS indicates solubility ≥ 1mg/ml) | 0.066
2 | CCCCCCCCCCCCCC(=O)N[C@@H](CCC(=O)N[C@@H](CCCNC(=N)N)C(=O)N[C@H]1CSSC[C@@H](C(=O)N[C@@H](C)C(=O)N[C@H](C(=O)N[C@@H](CCC(N)=O)C(=O)N[C@@H](CCCNC(=N)N)C(=O)N[C@@H](CC(C)C)C(=O)N[C@@H](C)C(=O)N[C@@H](CCC(=O)O)C(=O)N[C@@H](Cc2ccccc2)C(=O)N[C@@H](CC(C)C)C(=O)N[C@@H](Cc2c[nH]cn2)C(=O)N[C@@H](CCCNC(=N)N)C(=O)N[C@@H](CO)C(=O)N[C@@H](CO)C(=O)N[C@@H](CC(N)=O)C(=O)N[C@@H](CC(N)=O)C(=O)N[C@@H](Cc2ccccc2)C(=O)N(C)CC(=O)N[C@@H](C)C(=O)N(C)[C@H](C(=O)N[C@@H](CC(C)C)C(=O)N[C@@H](CO)C(=O)N[C@@H](CO)C(=O)N[C@H](C(=O)N[C@@H](CC(N)=O)C(=O)N[C@H](C(=O)NCC(=O)N[C@@H](CO)C(=O)N[C@@H](CC(N)=O)C(=O)N[C@H](C(=O)N2CCC[C@H]2C(N)=O)[C@@H](C)O)C(C)C)[C@@H](C)O)[C@@H](C)CC)[C@@H](C)O)NC(=O)[C@H]([C@@H](C)O)NC(=O)[C@H](C)NC(=O)[C@H]([C@@H](C)O)NC(=O)[C@H](CC(N)=O)NC1=O)C(=O)O [Compound 91, [Tetradecanoyl]-isoGlu-RC()NTATC()ATQRLAEFLHRSSNNF-Gly(Me)-A-Ile(Me)-LSSTNVGSNTP-NH2] ({Myristoyl-γGlu}-RCNTATCATQRLAEFLHRSSNNF[Sar]A[NMeI]LSSTNVGSNTP-NH2; disulfide 2-7) | SS (SS indicates solubility ≥ 1mg/ml) | SS (SS indicates solubility ≥ 1mg/ml) | SS (SS indicates solubility ≥ 1mg/ml) | SS (SS indicates solubility ≥ 1mg/ml) | SS (SS indicates solubility ≥ 1mg/ml) | SS (SS indicates solubility ≥ 1mg/ml) | SS (SS indicates solubility ≥ 1mg/ml) | 0.047
3 | CCCCCCCCCCCCCCCC(=O)N[C@@H](CCC(=O)N[C@@H](CCCNC(=N)N)C(=O)N[C@H]1CSSC[C@@H](C(=O)N[C@@H](C)C(=O)N[C@H](C(=O)N[C@@H](CCC(N)=O)C(=O)N[C@@H](CCCNC(=N)N)C(=O)N[C@@H](CC(C)C)C(=O)N[C@@H](C)C(=O)N[C@@H](CCC(=O)O)C(=O)N[C@@H](Cc2ccccc2)C(=O)N[C@@H](CC(C)C)C(=O)N[C@@H](Cc2c[nH]cn2)C(=O)N[C@@H](CCCNC(=N)N)C(=O)N[C@@H](CO)C(=O)N[C@@H](CO)C(=O)N[C@@H](CC(N)=O)C(=O)N[C@@H](CC(N)=O)C(=O)N[C@@H](Cc2ccccc2)C(=O)N(C)CC(=O)N[C@@H](C)C(=O)N(C)[C@H](C(=O)N[C@@H](CC(C)C)C(=O)N[C@@H](CO)C(=O)N[C@@H](CO)C(=O)N[C@H](C(=O)N[C@@H](CC(N)=O)C(=O)N[C@H](C(=O)NCC(=O)N[C@@H](CO)C(=O)N[C@@H](CC(N)=O)C(=O)N[C@H](C(=O)N2CCC[C@H]2C(N)=O)[C@@H](C)O)C(C)C)[C@@H](C)O)[C@@H](C)CC)[C@@H](C)O)NC(=O)[C@H]([C@@H](C)O)NC(=O)[C@H](C)NC(=O)[C@H]([C@@H](C)O)NC(=O)[C@H](CC(N)=O)NC1=O)C(=O)O [Compound 92, [Hexadecanoyl]-isoGlu-RC()NTATC()ATQRLAEFLHRSSNNF-Gly(Me)-A-Ile(Me)-LSSTNVGSNTP-NH2] ({Palmitoyl-γGlu}-RCNTATCATQRLAEFLHRSSNNF[Sar]A[NMeI]LSSTNVGSNTP-NH2; disulfide 2-7) | SS (SS indicates solubility ≥ 1mg/ml) | SS (SS indicates solubility ≥ 1mg/ml) | SS (SS indicates solubility ≥ 1mg/ml) | SS (SS indicates solubility ≥ 1mg/ml) | SS (SS indicates solubility ≥ 1mg/ml) | SS (SS indicates solubility ≥ 1mg/ml) | SS (SS indicates solubility ≥ 1mg/ml) | 0.054
4 | CCCCCCCCCCCCCCCCCC(=O)N[C@@H](CCC(=O)N[C@@H](CCCNC(=N)N)C(=O)N[C@H]1CSSC[C@@H](C(=O)N[C@@H](C)C(=O)N[C@H](C(=O)N[C@@H](CCC(N)=O)C(=O)N[C@@H](CCCNC(=N)N)C(=O)N[C@@H](CC(C)C)C(=O)N[C@@H](C)C(=O)N[C@@H](CCC(=O)O)C(=O)N[C@@H](Cc2ccccc2)C(=O)N[C@@H](CC(C)C)C(=O)N[C@@H](Cc2c[nH]cn2)C(=O)N[C@@H](CCCNC(=N)N)C(=O)N[C@@H](CO)C(=O)N[C@@H](CO)C(=O)N[C@@H](CC(N)=O)C(=O)N[C@@H](CC(N)=O)C(=O)N[C@@H](Cc2ccccc2)C(=O)N(C)CC(=O)N[C@@H](C)C(=O)N(C)[C@H](C(=O)N[C@@H](CC(C)C)C(=O)N[C@@H](CO)C(=O)N[C@@H](CO)C(=O)N[C@H](C(=O)N[C@@H](CC(N)=O)C(=O)N[C@H](C(=O)NCC(=O)N[C@@H](CO)C(=O)N[C@@H](CC(N)=O)C(=O)N[C@H](C(=O)N2CCC[C@H]2C(N)=O)[C@@H](C)O)C(C)C)[C@@H](C)O)[C@@H](C)CC)[C@@H](C)O)NC(=O)[C@H]([C@@H](C)O)NC(=O)[C@H](C)NC(=O)[C@H]([C@@H](C)O)NC(=O)[C@H](CC(N)=O)NC1=O)C(=O)O [Compound 93, [Octadecanoyl]-isoGlu-RC()NTATC()ATQRLAEFLHRSSNNF-Gly(Me)-A-Ile(Me)-LSSTNVGSNTP-NH2] ({Stearoyl-γGlu}-RCNTATCATQRLAEFLHRSSNNF[Sar]A[NMeI]LSSTNVGSNTP-NH2; disulfide 2-7) | SS (SS indicates solubility ≥ 1mg/ml) | SS (SS indicates solubility ≥ 1mg/ml) | SS (SS indicates solubility ≥ 1mg/ml) | SS (SS indicates solubility ≥ 1mg/ml) | SS (SS indicates solubility ≥ 1mg/ml) | SS (SS indicates solubility ≥ 1mg/ml) | SS (SS indicates solubility ≥ 1mg/ml) | 0.064
